How the values were obtained:
[1] = tested on: CUL5/RBX2 with ZYG11B-EloBC; assay type: binding, human
[2] = biological target: T1, ZYG11B-EloBC (Homo sapiens, UniProt Q9C0D3); assay: MBP pull-down with substrate receptor module ZYG11B-EloBC; assay type: binding; details: MBP fusion on amylose resin, prey 1:1, 1 h, 4°C; SDS-PAGE, Coomassie
Method: Peptides corresponding to […] and […] were appended to the N terminus of maltose-binding protein (MBP) and cloned into pET-28a containing an N-terminal His6 tag followed by a TEV protease cleavage site. Fusion proteins were purified by Ni-NTA chromatography, digested with TEV protease, and passed over Ni-NTA resin again to remove TEV and the cleaved His6 tag. Final purification was performed by size-exclusion chromatography. The resulting proteins contained MBP fused to N-terminal Gly/N-degron overhangs. For pulldown experiments, approximately 100 μg MBP fusion protein was immobilized on 50 μL amylose resin and incubated with prey protein at a 1:1 molar ratio for 1 h at 4°C. Resin was washed three times, and bound proteins were eluted in sizing buffer supplemented with 20 mM maltose. Samples were analyzed by SDS-PAGE and Coomassie staining. Pulldown efficiency was quantified as the ratio of MBP–NLRP1 degron signal to ZYG11B signal in the same gel lane. […]
incubation of full-length Cyclin B1 without Gly/N-degron with ZYG11B–EloBC (top). SDS–PAGE analysis of the indicated fractions from the Superose 6 column (dashed lines) confirms complex formation (bottom) C, fluorescence anisotropy binding of ZYG11B-EloBC to indicated fluorescein-labeled peptides (left) and fitted equilibrium dissociation constants (right). […]

[3] = tested on: CRL2^ZYG11B; assay: MBP pull-down with E3 holoenzyme CRL2^ZYG11B; assay type: binding, human; details: MBP fusion on amylose resin, prey 1:1, 1 h, 4°C; SDS-PAGE, Coomassie
Method: Bacmids were generated in DH10Bac cells and transfected into Sf9 cells to produce recombinant baculovirus, which was amplified through two additional rounds. Four liters of Sf9 cells at 2 × 10 ^6 cells/mL were infected with amplified virus and harvested after 60 h. Cell pellets were resuspended in buffer B (50 mM Tris-HCl, 500 mM NaCl, 0.5 mM EDTA, 0.5 mM TCEP, and 1 mM PMSF) supplemented with protease inhibitors, lysed by sonication, and clarified by ultracentrifugation at 40,000 rpm for 1 h. The supernatant was incubated with Strep-Tactin Sepharose resin for 2 h, washed extensively with buffer B, and eluted with 20 mM HEPES, pH 7.5, 300 mM NaCl, 0.5 mM TCEP, and 10 mM D-desthiobiotin. The complex was further purified by size-exclusion chromatography in the same sizing buffer used for ZYG11B–EloBC.
To reconstitute the pentameric CRL2–ZYG11B complex (ZBCC), purified ZYG11B–EloBC and CUL2/Rbx1 complexes were mixed at a 1:1 molar ratio and incubated on ice for 30 min. […]
Peptides corresponding to […] and […] were appended to the N terminus of maltose-binding protein (MBP) and cloned into pET-28a containing an N-terminal His6 tag followed by a TEV protease cleavage site. […] Samples were analyzed by SDS-PAGE and Coomassie staining. Pulldown efficiency was quantified as the ratio of MBP–NLRP1 degron signal to ZYG11B signal in the same gel lane. […]

[4] = tested on: NLRP1; details: treatment of cells with pan-CRL inhibitor; cited from earlier work
Excerpt: Human NLRP1 (NACHT, LRR, and PYD domains-containing protein 1) has recently been characterized as a substrate of CRL2 in complex with either ZYG11B or ZER1.[7] NLRP1 is an effector-triggered immunity (ETI) sensor of pathogen-encoded proteases, wherein cleavage of NLRP1 in mice and humans by specific bacterial or viral proteases results in inflammasome formation, which leads to subsequent release of pro-inflammatory cytokines such as IL-1b and IL-18 and pyroptotic cell death.[7]-[10] The mechanism by which this occurs, termed functional degradation, depends on specific recognition, ubiquitinati ...

[5] = biological target: T1, ZYG11B-EloBC; assay type: binding

T1 sequence (Q9C0D3 whole entry, the tested form may be a part): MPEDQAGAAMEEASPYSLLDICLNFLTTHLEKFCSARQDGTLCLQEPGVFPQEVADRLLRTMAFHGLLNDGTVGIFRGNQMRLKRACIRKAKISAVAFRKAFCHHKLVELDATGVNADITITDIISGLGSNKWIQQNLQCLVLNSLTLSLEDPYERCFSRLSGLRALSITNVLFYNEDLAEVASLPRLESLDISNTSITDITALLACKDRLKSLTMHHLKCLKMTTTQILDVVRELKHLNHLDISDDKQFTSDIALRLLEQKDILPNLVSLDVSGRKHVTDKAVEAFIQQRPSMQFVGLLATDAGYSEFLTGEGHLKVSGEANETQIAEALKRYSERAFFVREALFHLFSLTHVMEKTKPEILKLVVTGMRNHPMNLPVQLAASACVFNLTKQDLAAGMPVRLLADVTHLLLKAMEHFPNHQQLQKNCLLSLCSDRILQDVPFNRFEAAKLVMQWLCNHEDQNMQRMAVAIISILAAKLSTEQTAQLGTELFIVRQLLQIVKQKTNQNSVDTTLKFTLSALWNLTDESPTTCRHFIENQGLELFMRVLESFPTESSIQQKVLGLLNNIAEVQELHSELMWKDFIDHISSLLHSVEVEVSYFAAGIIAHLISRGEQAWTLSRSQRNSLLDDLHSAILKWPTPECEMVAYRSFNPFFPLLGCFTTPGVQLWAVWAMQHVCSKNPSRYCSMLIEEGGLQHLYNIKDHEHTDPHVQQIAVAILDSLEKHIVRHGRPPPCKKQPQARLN
T1 sequence (Q15370 whole entry partner, the tested form may be a part): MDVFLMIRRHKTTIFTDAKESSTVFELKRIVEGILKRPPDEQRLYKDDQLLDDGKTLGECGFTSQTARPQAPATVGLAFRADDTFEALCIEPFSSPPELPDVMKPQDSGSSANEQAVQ
T1 sequence (Q15369 17-112 partner limits assumed): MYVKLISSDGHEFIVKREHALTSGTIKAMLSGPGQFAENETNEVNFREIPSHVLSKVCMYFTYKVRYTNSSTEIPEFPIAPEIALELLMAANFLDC

Compound | amount of CUL5/RBX2 retained compared to CUL2/RBX1 [1] | interaction with ZYG11B-EloBC [2] | interaction with CRL2^ZYG11B [3] | effect on HRV-mediated activation of NLRP1 [4] | co-purification / complex formation with ZYG11B-EloBC [5]
GSERRVLRQL [Degron-10] | reduced compared to CUL2/RBX1 | interacted | interacted |  | 
NS(=O)(=O)OC[C@@H]1C[C@@H](n2ccc3c(N[C@H]4CCc5ccccc54)ncnc32)C[C@@H]1O [MLN4924] |  |  |  | impairs HRV-mediated activation of NLRP1 | 
GSERRVLRQLPDTSGRRWRE [Degron-20] | reduced compared to CUL2/RBX1 | interacted | interacted |  | 
GSERRVLRQLPDTSG [chimera] |  |  |  |  | copurified with ZYG11B-EloBC
